Measurements from ChEMBL document CHEMBL4342498, “Design and Discovery of an Orally Efficacious Spiroindolinone-Based Tankyrase Inhibitor for the Treatment of Colon Cancer” (J Med Chem, 2020).
The source made the active and inactive calls. The calls are words filed in the database; no cut-off is given here.

Columns and labels:
Cytochrome P450 2C8 = target: T1, Cytochrome P450 2C8 (Homo sapiens, UniProt P10632); experiment: Inhibition of CYP2C8 in human liver microsomes using amodiaquine as substrate preincubated for 5 mins followed by NADPH addition and measured for 10 to 30 mins by LC-MS/MS analysis; type: ADME
T1 sequence (P10632 whole entry): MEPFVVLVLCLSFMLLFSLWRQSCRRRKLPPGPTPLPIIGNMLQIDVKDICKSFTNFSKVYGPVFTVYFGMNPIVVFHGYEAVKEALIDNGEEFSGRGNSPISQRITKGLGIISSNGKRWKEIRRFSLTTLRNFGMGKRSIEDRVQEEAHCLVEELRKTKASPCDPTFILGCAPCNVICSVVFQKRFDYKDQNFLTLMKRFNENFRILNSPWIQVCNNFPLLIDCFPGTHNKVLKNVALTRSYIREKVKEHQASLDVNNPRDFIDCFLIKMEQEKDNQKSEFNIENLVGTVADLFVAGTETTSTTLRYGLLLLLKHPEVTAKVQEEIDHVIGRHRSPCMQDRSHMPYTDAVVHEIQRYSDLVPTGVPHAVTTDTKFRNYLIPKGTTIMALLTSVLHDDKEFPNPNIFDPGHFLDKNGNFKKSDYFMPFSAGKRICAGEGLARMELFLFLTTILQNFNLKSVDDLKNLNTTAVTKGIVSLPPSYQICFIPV

[1] = Total clearance in Sprague-Dawley rat at 3 mg/kg, iv; type: ADME, organism-based; settings: in vivo
[2] = Dose normalized initial plasma concentration in Sprague-Dawley rat at 1 mg/kg, iv; type: ADME, organism-based; settings: in vivo
Cytochrome P450 3A4 = Cytochrome P450 3A4 (Homo sapiens, UniProt P08684); experiment: Inhibition of CYP3A4 in human liver microsomes using midazolam as substrate preincubated for 5 mins followed by NADPH addition and measured for 10 to 30 mins by LC-MS/MS analysis; type: ADME
Chain of Cytochrome P450 3A4 (P08684 whole entry): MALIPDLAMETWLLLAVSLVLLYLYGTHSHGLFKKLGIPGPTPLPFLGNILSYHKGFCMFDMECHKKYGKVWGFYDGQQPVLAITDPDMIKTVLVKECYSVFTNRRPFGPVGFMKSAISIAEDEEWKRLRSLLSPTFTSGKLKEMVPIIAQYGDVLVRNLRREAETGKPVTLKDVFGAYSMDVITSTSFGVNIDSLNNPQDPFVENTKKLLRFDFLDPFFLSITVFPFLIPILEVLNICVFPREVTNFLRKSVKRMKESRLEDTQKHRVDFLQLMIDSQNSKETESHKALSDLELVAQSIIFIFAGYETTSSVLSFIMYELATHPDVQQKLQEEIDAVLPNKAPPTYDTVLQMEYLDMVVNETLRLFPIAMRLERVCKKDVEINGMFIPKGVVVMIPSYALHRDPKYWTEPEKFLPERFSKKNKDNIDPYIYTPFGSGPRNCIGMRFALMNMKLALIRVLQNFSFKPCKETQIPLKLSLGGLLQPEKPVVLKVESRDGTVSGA

[3] = Cmax in ICR mouse at 20 mg/kg, ip; type: ADME, organism-based; design: dose 20 mg/kg, route intraperitoneal; settings: in vivo
COLO 320DM [4] = experiment: Antitumor activity against human COLO320DM cells xenografted in Prkdc-NOD-SCID CB17 mouse assessed as tumor growth inhibition at 10 mg/kg, po administered twice daily for 5 days followed by 2 days interval for 2 cycles relative to control; type: functional; settings: read-out: TGI
[5] = Oral bioavailability in Sprague-Dawley rat at 3 mg/kg; type: ADME, organism-based; settings: in vivo
[6] = Half life in ICR mouse at 20 mg/kg, po; type: ADME, organism-based; settings: in vivo
COLO 320DM [7] = experiment: Antitumor activity against human COLO320DM cells xenografted in Prkdc-NOD-SCID CB17 mouse assessed as tumor growth inhibition at 20 mg/kg, po administered twice daily for 5 days followed by 2 days interval for 2 cycles relative to control; type: functional; settings: read-out: TGI
Cytochrome P450 2D6 = Cytochrome P450 2D6 (Homo sapiens, UniProt P10635); experiment: Inhibition of CYP2D6 in human liver microsomes using bufuralol as substrate preincubated for 5 mins followed by NADPH addition and measured for 10 to 30 mins by LC-MS/MS analysis; type: ADME
Chain of Cytochrome P450 2D6 (P10635 whole entry): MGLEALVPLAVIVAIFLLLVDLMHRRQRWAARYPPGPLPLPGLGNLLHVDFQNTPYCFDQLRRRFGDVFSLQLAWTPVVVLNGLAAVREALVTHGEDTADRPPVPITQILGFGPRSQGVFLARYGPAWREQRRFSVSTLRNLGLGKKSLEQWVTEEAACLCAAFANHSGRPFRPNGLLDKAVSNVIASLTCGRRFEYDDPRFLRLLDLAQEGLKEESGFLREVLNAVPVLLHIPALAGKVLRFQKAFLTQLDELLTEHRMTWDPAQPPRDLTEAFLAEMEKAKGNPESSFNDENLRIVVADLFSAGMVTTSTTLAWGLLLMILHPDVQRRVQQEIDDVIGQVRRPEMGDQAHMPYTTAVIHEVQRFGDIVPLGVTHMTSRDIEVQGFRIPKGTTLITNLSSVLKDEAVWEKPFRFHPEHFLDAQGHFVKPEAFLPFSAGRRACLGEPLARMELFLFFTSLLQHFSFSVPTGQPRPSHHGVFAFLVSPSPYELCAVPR

Cytochrome P450 2B6 = target: T2, Cytochrome P450 2B6 (Homo sapiens, UniProt P20813); experiment: Inhibition of CYP2B6 in human liver microsomes using bupropion as substrate preincubated for 5 mins followed by NADPH addition and measured for 10 to 30 mins by LC-MS/MS analysis; type: ADME
T2 sequence (P20813 whole entry): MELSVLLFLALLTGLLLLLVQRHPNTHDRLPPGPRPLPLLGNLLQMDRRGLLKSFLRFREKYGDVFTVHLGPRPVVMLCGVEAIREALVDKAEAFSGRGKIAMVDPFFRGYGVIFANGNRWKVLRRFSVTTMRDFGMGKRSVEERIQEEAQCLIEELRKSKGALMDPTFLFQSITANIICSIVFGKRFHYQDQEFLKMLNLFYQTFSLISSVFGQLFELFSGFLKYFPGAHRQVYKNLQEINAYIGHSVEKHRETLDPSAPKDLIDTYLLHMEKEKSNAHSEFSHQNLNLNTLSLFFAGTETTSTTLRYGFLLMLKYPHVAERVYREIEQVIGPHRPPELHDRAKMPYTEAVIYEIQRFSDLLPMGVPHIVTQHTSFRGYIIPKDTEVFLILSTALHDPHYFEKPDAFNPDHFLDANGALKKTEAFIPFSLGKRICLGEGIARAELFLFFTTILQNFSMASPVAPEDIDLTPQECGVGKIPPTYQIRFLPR

[8] = Plasma concentration in human COLO320DM cells xenografted Prkdc-NOD-SCID CB17 mouse at 20 mg/kg, po administered twice daily for 5 days followed by 2 days interval for 2 cycles measured 4 hrs post-last dose; type: ADME, organism-based
[9] = Toxicity in human COLO320DM cells xenografted Prkdc-NOD-SCID CB17 mouse assessed as epithelial degeneration at 50 mg/kg, ip administered twice daily for 5 days followed by 2 days interval for 2 cycles; settings: in vivo
Homo sapiens [10] = species on record: Homo sapiens
Mus musculus = experiment: In vivo inhibition of TNSK/TNSK2-medited WNT/beta-catenin signaling in human COLO320DM cells xenografted Prkdc-NOD-SCID CB17 mouse assessed as upregulation of AXIN2 expression in tumor cytosolic extract at 10 to 20 mg/kg, ip administered twice daily for 5 days followed by 2 days interval for 2 cycles measured 4 hrs post-last dose by Western blot analysis; type: functional, organism-based
Homo sapiens [11] = species on record: Homo sapiens; remark: listed apart in the source
[12] = target: Poly [ADP-ribose] polymerase 1 (Homo sapiens, UniProt P09874); experiment: Inhibition of recombinant human PARP1 expressed in Escherichia coli assessed as reduction in auto-PARylation using histone as substrate measured after 45 mins in presence of biotinylated-NAD+ by ELISA
Chain of Poly [ADP-ribose] polymerase 1 (P09874 whole entry): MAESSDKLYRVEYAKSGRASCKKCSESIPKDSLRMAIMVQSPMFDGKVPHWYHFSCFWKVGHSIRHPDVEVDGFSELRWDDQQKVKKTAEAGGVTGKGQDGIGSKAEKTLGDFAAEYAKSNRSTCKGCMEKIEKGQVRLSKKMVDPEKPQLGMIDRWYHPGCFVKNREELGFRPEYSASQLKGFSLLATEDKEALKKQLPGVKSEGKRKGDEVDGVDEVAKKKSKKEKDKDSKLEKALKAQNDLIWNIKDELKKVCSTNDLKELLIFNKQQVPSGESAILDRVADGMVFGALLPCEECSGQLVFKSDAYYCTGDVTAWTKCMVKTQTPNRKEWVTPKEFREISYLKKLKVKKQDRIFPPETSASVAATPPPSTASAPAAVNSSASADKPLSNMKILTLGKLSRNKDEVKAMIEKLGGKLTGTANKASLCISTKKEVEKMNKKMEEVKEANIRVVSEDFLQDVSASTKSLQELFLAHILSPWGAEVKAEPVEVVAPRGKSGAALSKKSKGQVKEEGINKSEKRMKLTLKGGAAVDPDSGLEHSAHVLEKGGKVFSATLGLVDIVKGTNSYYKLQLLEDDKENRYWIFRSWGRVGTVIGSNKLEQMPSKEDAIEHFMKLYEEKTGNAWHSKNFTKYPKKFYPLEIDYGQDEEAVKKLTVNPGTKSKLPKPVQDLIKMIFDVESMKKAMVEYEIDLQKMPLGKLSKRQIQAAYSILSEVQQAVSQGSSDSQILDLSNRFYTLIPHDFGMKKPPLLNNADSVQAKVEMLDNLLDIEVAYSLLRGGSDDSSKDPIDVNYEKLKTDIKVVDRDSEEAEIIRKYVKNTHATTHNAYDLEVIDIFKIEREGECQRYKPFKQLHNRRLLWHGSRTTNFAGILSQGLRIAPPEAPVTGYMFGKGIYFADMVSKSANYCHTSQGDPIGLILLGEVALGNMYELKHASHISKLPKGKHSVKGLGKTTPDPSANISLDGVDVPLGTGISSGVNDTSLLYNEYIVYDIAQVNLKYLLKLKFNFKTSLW

[13] = Half life in ICR mouse at 20 mg/kg, ip; type: ADME, organism-based; settings: in vivo
COLO 320DM [14] = experiment: Antitumor activity against human COLO320DM cells xenografted in Prkdc-NOD-SCID CB17 mouse assessed as tumor growth inhibition; type: functional

IC50 (Cytochrome P450 2C8) [µM]	clearance [1] [mL/min/kg]	C0/dose [2] [µM]	IC50 (Cytochrome P450 3A4) [µM]	Cmax [3] [µM]	bioavailability [5] [%]	half-life [6] [h]	IC50 (Cytochrome P450 2D6) [µM]	IC50 (Cytochrome P450 2B6) [µM]	concentration at 4 h [8] [µM]	Ratio IC50 (Homo sapiens [10])	Ratio IC50 (Homo sapiens [11])	IC50 [12] [µM]	half-life [13] [h]	SMILES	inhibition in vivo at 10 mg/kg (COLO 320DM [4]) [%]	inhibition in vivo at 20 mg/kg (COLO 320DM [7]) [%]	Activity [9]	inhibition (Mus musculus)	TGI (COLO 320DM [14])
> 10	3.17	15.26	> 10	75.6	100	1.7	> 10	> 10	23.3	504	34	18.2	2.8	C[C@@H]1CN(c2cc(F)c3c(c2)N(C)C(=O)C32CCN(c3nc4c(c(=O)[nH]3)CCCN4C)CC2)C[C@H](C)O1	52.3	52	Toxic	Active	
														CN1CCN(c2cc(F)c3c(c2)N(C)C(=O)C32CCN(c3nc4c(c(=O)[nH]3)CCCN4C)CC2)CC1					inactive
